{"source": "ChEMBL document CHEMBL3745631", "about": "“Discovery of highly potent and selective Bruton's tyrosine kinase inhibitors: Pyridazinone analogs with improved metabolic stability” (Bioorg Med Chem Lett, 2016)", "key": {"[1]": {"biological_target": "Tyrosine-protein kinase Tec (Homo sapiens) (UniProt P42680)", "experiment": "Inhibition of TEC (unknown origin) at 1 uM"}, "[2]": {"biological_target": "Ribosomal protein S6 kinase alpha-1 (Homo sapiens) (UniProt Q15418)", "sequence (Q15418 whole entry)": "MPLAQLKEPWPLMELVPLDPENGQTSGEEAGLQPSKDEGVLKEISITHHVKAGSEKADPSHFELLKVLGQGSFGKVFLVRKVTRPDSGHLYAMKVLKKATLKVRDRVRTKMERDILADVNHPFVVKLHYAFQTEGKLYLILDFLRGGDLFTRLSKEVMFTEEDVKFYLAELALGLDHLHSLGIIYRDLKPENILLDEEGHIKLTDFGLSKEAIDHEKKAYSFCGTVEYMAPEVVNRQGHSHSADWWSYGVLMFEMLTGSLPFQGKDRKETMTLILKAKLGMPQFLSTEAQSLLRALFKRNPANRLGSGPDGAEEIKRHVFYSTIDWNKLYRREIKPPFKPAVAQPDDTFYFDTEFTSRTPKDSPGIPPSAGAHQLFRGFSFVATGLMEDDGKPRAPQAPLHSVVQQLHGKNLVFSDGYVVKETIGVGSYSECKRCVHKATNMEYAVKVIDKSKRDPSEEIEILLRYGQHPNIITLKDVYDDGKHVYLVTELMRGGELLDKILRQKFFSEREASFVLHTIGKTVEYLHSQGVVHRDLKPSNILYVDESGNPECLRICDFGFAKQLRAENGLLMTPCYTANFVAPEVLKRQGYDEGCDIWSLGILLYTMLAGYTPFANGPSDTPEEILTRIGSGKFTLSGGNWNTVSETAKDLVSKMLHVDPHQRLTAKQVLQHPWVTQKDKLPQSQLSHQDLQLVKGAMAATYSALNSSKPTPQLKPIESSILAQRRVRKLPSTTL", "experiment": "Inhibition of Rsk1 (unknown origin) at 1 uM"}, "[3]": {"biological_target": "RAC-alpha serine/threonine-protein kinase (Homo sapiens) (UniProt P31749)", "sequence (P31749 whole entry)": "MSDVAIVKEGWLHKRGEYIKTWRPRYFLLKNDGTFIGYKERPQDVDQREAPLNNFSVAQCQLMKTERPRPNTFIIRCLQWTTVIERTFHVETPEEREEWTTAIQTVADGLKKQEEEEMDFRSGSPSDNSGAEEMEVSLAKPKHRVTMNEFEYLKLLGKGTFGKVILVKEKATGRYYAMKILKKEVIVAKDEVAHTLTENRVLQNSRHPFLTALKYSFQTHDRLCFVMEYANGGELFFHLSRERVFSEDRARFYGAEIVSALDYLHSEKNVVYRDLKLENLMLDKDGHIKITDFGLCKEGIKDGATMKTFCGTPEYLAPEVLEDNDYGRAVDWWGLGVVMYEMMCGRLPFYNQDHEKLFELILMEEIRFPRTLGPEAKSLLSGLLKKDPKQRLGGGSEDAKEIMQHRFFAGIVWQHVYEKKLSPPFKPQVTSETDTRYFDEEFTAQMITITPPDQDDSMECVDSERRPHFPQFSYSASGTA", "experiment": "Inhibition of AKT1 (unknown origin) at 1 uM"}, "[4]": {"biological_target": "Serine/threonine-protein kinase 26 (Homo sapiens) (UniProt Q9P289)", "experiment": "Inhibition of MST4 (unknown origin) at 1 uM"}, "[5]": {"biological_target": "Protein kinase C epsilon type (Homo sapiens) (UniProt Q02156)", "experiment": "Inhibition of PKCepsilon (unknown origin) at 1 uM"}, "[6]": {"biological_target": "DNA-dependent protein kinase catalytic subunit (Homo sapiens) (UniProt P78527)", "experiment": "Inhibition of DNA-PK (unknown origin) at 1 uM"}, "[7]": {"tested_on": "Salmonella typhimurium", "experiment": "Genotoxicity in Salmonella typhimurium TA100 by Ames test in presence of S9 fraction", "type": "toxicity, organism-based", "conditions": "salmonella enterica subsp. enterica serovar typhimurium"}, "[8]": {"biological_target": "Serine/threonine-protein kinase Sgk1 (Homo sapiens) (UniProt O00141)", "sequence (O00141 whole entry)": "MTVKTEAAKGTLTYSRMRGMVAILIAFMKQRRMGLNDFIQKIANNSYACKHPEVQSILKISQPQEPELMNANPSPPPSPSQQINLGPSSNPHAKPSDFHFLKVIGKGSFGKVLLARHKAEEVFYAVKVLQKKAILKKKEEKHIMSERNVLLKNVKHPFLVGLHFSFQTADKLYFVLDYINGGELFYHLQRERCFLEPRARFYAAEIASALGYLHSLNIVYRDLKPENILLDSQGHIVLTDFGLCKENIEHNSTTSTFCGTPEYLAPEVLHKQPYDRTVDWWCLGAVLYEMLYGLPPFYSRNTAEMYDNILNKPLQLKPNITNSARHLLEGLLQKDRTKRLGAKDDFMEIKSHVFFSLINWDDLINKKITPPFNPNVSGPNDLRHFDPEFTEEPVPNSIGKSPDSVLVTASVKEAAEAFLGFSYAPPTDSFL", "experiment": "Inhibition of SGK1 (unknown origin) at 1 uM"}, "[9]": {"biological_target": "MAP kinase-interacting serine/threonine-protein kinase 1 (Homo sapiens) (UniProt Q9BUB5)", "experiment": "Inhibition of MKNK1 (unknown origin) at 1 uM"}, "[10]": {"biological_target": "PAS domain-containing serine/threonine-protein kinase (Homo sapiens) (UniProt Q96RG2)", "sequence (Q96RG2 whole entry, the tested form may be a part)": "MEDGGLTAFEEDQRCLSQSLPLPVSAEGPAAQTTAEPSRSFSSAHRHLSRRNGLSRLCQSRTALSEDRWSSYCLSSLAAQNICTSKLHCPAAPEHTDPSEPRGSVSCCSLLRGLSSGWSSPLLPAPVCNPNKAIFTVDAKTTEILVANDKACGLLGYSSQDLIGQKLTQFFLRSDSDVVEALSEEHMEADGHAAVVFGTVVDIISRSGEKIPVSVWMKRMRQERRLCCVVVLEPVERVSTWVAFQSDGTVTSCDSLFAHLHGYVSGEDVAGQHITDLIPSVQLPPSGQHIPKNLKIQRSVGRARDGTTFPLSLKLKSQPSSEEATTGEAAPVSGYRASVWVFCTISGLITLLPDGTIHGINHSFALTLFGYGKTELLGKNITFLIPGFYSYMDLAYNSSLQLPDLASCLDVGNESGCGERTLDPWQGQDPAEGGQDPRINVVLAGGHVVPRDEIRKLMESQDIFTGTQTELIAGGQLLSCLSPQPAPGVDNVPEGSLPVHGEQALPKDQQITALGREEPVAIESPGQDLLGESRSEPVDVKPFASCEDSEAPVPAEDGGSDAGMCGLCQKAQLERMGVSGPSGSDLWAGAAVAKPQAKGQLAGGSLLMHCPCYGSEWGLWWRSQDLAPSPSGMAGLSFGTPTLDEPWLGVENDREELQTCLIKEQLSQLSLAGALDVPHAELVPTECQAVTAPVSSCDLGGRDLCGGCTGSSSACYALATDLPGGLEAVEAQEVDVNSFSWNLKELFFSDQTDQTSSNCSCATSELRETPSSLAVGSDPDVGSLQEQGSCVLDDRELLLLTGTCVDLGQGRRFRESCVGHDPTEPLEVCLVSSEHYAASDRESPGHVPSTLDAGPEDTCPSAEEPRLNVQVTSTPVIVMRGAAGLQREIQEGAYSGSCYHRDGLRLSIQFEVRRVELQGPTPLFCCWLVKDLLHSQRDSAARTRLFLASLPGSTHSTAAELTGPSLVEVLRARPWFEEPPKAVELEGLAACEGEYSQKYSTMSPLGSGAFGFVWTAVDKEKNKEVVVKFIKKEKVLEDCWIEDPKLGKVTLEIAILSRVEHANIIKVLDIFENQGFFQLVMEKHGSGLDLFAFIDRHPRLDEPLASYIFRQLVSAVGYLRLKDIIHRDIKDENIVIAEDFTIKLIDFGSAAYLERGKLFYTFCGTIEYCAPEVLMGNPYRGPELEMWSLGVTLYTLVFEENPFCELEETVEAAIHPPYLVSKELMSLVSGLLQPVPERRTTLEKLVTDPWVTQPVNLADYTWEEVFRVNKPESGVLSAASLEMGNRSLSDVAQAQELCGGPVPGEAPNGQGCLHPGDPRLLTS", "experiment": "Inhibition of PASK (unknown origin) at 1 uM"}, "[11]": {"biological_target": "Macrophage colony-stimulating factor 1 receptor (Homo sapiens) (UniProt P07333)", "experiment": "Inhibition of CSF1R (unknown origin) at 1 uM"}, "[12]": {"biological_target": "Muscle, skeletal receptor tyrosine-protein kinase (Homo sapiens) (UniProt O15146)", "experiment": "Inhibition of MusK (unknown origin) at 1 uM"}, "[13]": {"biological_target": "Serine/threonine-protein kinase Chk1 (Homo sapiens) (UniProt O14757)", "sequence (O14757 whole entry)": "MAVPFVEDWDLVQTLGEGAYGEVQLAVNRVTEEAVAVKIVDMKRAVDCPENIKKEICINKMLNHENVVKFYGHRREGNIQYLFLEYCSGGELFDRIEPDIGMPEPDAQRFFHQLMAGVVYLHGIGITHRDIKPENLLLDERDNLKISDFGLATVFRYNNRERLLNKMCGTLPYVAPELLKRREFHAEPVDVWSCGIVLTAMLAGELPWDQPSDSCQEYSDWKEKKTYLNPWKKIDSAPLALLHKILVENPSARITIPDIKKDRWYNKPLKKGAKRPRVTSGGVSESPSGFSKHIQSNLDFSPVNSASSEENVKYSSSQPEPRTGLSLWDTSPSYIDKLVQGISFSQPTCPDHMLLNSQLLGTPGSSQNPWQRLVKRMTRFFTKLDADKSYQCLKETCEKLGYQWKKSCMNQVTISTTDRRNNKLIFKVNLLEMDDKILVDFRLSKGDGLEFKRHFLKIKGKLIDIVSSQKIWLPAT", "experiment": "Inhibition of CHK1 (unknown origin) at 1 uM"}, "[14]": {"biological_target": "Tyrosine-protein kinase Srms (Homo sapiens) (UniProt Q9H3Y6)", "experiment": "Inhibition of Srm (unknown origin) at 1 uM"}, "[15]": {"experiment": "Inhibition of anti-IgM-stimulated human B cell proliferation"}, "[16]": {"biological_target": "Tyrosine-protein kinase CSK (Homo sapiens) (UniProt P41240)", "experiment": "Inhibition of CSK (unknown origin) at 1 uM"}, "[17]": {"biological_target": "Epithelial discoidin domain-containing receptor 1 (Homo sapiens) (UniProt Q08345)", "experiment": "Inhibition of DDR1 (unknown origin) at 1 uM"}, "[18]": {"biological_target": "Myosin light chain kinase (Homo sapiens) (UniProt Q32MK0)", "experiment": "Inhibition of MYLK3 (unknown origin) at 1 uM"}, "[19]": {"biological_target": "Mitogen-activated protein kinase kinase kinase kinase 4 (Homo sapiens) (UniProt O95819)", "experiment": "Inhibition of MAP4K4 (unknown origin) at 1 uM"}, "[20]": {"biological_target": "Mitogen-activated protein kinase 1 (Homo sapiens) (UniProt P28482)", "experiment": "Inhibition of ERK2 (unknown origin) at 1 uM"}, "[21]": {"biological_target": "Insulin receptor-related protein (Homo sapiens) (UniProt P14616)", "experiment": "Inhibition of IRR (unknown origin) at 1 uM"}, "[22]": {"biological_target": "Fibroblast growth factor receptor 4 (Homo sapiens) (UniProt P22455)", "experiment": "Inhibition of FGFR4 (unknown origin) at 1 uM"}, "[23]": {"biological_target": "Proto-oncogene tyrosine-protein kinase receptor Ret (Homo sapiens) (UniProt P07949)", "experiment": "Inhibition of Ret (unknown origin) at 1 uM"}, "[24]": {"biological_target": "Serine/threonine-protein kinase TAO1 (Homo sapiens) (UniProt Q7L7X3)", "experiment": "Inhibition of TAO1 (unknown origin) at 1 uM"}, "[25]": {"biological_target": "Serine/threonine-protein kinase PLK1 (Homo sapiens) (UniProt P53350)", "experiment": "Inhibition of PLK1 (unknown origin) at 1 uM"}, "[26]": {"biological_target": "Calcium/calmodulin-dependent protein kinase kinase 2 (Homo sapiens) (UniProt Q96RR4)", "experiment": "Inhibition of CAMKK2 (unknown origin) at 1 uM"}, "[27]": {"biological_target": "Calcium/calmodulin-dependent protein kinase type 1D (Homo sapiens) (UniProt Q8IU85)", "experiment": "Inhibition of CaMK1 delta (unknown origin) at 1 uM"}, "[28]": {"biological_target": "Mitogen-activated protein kinase 11 (Homo sapiens) (UniProt Q15759)", "experiment": "Inhibition of p38 beta (unknown origin) at 1 uM"}, "[29]": {"biological_target": "Mitogen-activated protein kinase 10 (Homo sapiens) (UniProt P53779)", "sequence (P53779 whole entry)": "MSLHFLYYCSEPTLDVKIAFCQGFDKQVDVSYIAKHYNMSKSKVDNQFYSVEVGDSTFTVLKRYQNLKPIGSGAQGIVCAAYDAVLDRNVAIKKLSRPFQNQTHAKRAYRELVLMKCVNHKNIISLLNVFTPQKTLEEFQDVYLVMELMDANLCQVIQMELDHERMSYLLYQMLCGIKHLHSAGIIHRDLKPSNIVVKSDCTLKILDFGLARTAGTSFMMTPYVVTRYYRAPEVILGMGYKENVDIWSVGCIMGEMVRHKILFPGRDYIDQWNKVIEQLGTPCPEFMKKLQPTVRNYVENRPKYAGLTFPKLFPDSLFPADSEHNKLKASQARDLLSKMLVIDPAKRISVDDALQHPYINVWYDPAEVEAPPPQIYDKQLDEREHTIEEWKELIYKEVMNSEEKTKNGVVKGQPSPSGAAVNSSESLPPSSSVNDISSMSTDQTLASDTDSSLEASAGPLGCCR", "experiment": "Inhibition of JNK3 (unknown origin) at 1 uM"}, "[30]": {"biological_target": "Testis-specific serine/threonine-protein kinase 1 (Homo sapiens) (UniProt Q9BXA7)", "experiment": "Inhibition of TSSK1 (unknown origin) at 1 uM"}, "[31]": {"tested_on": "Canis familiaris", "experiment": "Clearance in dog at 1 mg/kg, iv by LC-MS/MS analysis", "type": "ADME, organism-based, Canis lupus familiaris", "conditions": "in vivo"}, "[32]": {"biological_target": "Mitogen-activated protein kinase kinase kinase 20 (Homo sapiens) (UniProt Q9NYL2)", "experiment": "Inhibition of ZAK (unknown origin) at 1 uM"}, "[33]": {"biological_target": "Aurora kinase B (Homo sapiens) (UniProt Q96GD4)", "experiment": "Inhibition of AuroraB (unknown origin) at 1 uM"}, "[34]": {"biological_target": "Calcium/calmodulin-dependent protein kinase type IV (Homo sapiens) (UniProt Q16566)", "experiment": "Inhibition of CamK4(unknown origin) at 1 uM"}, "[35]": {"biological_target": "Homeodomain-interacting protein kinase 2 (Homo sapiens) (UniProt Q9H2X6)", "experiment": "Inhibition of HIPK2 (unknown origin) at 1 uM"}, "[36]": {"biological_target": "Tyrosine-protein kinase Fgr (Homo sapiens, UniProt P09769)", "experiment": "Inhibition of FGR (unknown origin)"}, "[37]": {"biological_target": "Phosphorylase b kinase gamma catalytic chain, liver/testis isoform (Homo sapiens) (UniProt P15735)", "experiment": "Inhibition of PhK gamma2 (unknown origin) at 1 uM"}, "[38]": {"biological_target": "MAP kinase-activated protein kinase 3 (Homo sapiens) (UniProt Q16644)", "experiment": "Inhibition of MAPKAPK3 (unknown origin) at 1 uM"}, "[39]": {"biological_target": "LIM domain kinase 1 (Homo sapiens) (UniProt P53667)", "experiment": "Inhibition of LIMK1 (unknown origin) at 1 uM"}, "[40]": {"biological_target": "Ephrin type-A receptor 8 (Homo sapiens) (UniProt P29322)", "experiment": "Inhibition of EphA8 (unknown origin) at 1 uM"}, "[41]": {"biological_target": "Glycogen synthase kinase-3 beta (Homo sapiens) (UniProt P49841)", "experiment": "Inhibition of GSK3 beta (unknown origin) at 1 uM"}, "[42]": {"tested_on": "Rattus norvegicus", "experiment": "Clearance in rat at 1 mg/kg, iv by LC-MS/MS analysis", "type": "ADME, organism-based", "conditions": "in vivo"}, "[43]": {"biological_target": "Tyrosine-protein kinase Tec (Homo sapiens, UniProt P42680)", "experiment": "Inhibition of TEC (unknown origin)"}, "[44]": {"biological_target": "Ribosomal protein S6 kinase alpha-5 (Homo sapiens) (UniProt O75582)", "sequence (O75582 whole entry, looked up)": "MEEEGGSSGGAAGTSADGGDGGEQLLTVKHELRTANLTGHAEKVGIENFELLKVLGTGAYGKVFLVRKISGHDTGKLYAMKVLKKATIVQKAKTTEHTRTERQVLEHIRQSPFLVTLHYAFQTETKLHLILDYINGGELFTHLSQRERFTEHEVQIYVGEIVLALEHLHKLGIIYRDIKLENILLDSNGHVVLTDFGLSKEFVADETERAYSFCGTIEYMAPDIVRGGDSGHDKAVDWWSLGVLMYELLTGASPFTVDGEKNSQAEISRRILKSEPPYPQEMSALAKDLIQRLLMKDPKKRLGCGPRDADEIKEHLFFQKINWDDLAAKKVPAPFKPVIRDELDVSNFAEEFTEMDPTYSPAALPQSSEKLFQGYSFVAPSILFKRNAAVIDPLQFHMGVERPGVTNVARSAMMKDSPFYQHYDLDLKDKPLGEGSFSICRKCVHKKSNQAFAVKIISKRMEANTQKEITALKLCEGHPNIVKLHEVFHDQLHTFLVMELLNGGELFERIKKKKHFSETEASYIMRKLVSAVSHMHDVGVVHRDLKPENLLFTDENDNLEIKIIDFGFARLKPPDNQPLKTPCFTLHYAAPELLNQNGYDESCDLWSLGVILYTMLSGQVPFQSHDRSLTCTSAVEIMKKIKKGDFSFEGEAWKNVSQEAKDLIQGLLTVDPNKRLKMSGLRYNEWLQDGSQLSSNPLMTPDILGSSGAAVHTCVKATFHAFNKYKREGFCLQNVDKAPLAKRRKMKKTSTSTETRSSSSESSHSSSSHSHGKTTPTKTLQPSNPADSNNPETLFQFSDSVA", "experiment": "Inhibition of MSK1 (unknown origin) at 1 uM"}, "[45]": {"biological_target": "Tyrosine-protein kinase Mer (Homo sapiens) (UniProt Q12866)", "experiment": "Inhibition of Mer (unknown origin) at 1 uM"}}}
{"smiles": "Cc1c(-c2cc(Nc3cc4n(n3)CCN(C)C4)c(=O)[nH]n2)ccc(F)c1NC(=O)c1cc2ccccc2s1", "values": [{"measurement": "inhibition", "setting": "[1]", "result": 87.9, "unit": "%"}, {"measurement": "inhibition", "setting": "[2]", "result": -0.4, "unit": "%"}, {"measurement": "inhibition", "setting": "[3]", "result": 2.5, "unit": "%"}, {"measurement": "inhibition", "setting": "[4]", "result": 8.6, "unit": "%"}, {"measurement": "inhibition", "setting": "[5]", "result": -6.8, "unit": "%"}, {"measurement": "inhibition", "setting": "[6]", "result": 8.5, "unit": "%"}, {"measurement": "Activity", "setting": "[7]", "result": "Non-toxic"}, {"measurement": "inhibition", "setting": "[8]", "result": 4.6, "unit": "%"}, {"measurement": "inhibition", "setting": "[9]", "result": -2.8, "unit": "%"}, {"measurement": "inhibition", "setting": "[10]", "result": 6.2, "unit": "%"}, {"measurement": "inhibition", "setting": "[11]", "result": 13, "unit": "%"}, {"measurement": "inhibition", "setting": "[12]", "result": 1.4, "unit": "%"}, {"measurement": "inhibition", "setting": "[13]", "result": 4.8, "unit": "%"}, {"measurement": "inhibition", "setting": "[14]", "result": 15.7, "unit": "%"}, {"measurement": "EC50", "setting": "[15]", "result": 0.006, "unit": "µM"}, {"measurement": "inhibition", "setting": "[16]", "result": 5.2, "unit": "%"}, {"measurement": "inhibition", "setting": "[17]", "result": 0.8, "unit": "%"}, {"measurement": "inhibition", "setting": "[18]", "result": 3, "unit": "%"}, {"measurement": "inhibition", "setting": "[19]", "result": 3, "unit": "%"}, {"measurement": "inhibition", "setting": "[20]", "result": 6.8, "unit": "%"}, {"measurement": "inhibition", "setting": "[21]", "result": 2.3, "unit": "%"}, {"measurement": "inhibition", "setting": "[22]", "result": -3.5, "unit": "%"}, {"measurement": "inhibition", "setting": "[23]", "result": 14.9, "unit": "%"}, {"measurement": "inhibition", "setting": "[24]", "result": -3.8, "unit": "%"}, {"measurement": "inhibition", "setting": "[25]", "result": 6, "unit": "%"}, {"measurement": "inhibition", "setting": "[26]", "result": 8.2, "unit": "%"}, {"measurement": "inhibition", "setting": "[27]", "result": 5.8, "unit": "%"}, {"measurement": "inhibition", "setting": "[28]", "result": 8.7, "unit": "%"}, {"measurement": "inhibition", "setting": "[29]", "result": 10.3, "unit": "%"}, {"measurement": "inhibition", "setting": "[30]", "result": 0, "unit": "%"}, {"measurement": "clearance", "setting": "[31]", "result": 0.84, "unit": "L/h/kg"}, {"measurement": "inhibition", "setting": "[32]", "result": 0.8, "unit": "%"}, {"measurement": "inhibition", "setting": "[33]", "result": -0.4, "unit": "%"}, {"measurement": "inhibition", "setting": "[34]", "result": 2.4, "unit": "%"}, {"measurement": "inhibition", "setting": "[35]", "result": 4.5, "unit": "%"}, {"measurement": "IC50", "setting": "[36]", "result": 1.03, "unit": "µM"}, {"measurement": "inhibition", "setting": "[37]", "result": 1.8, "unit": "%"}, {"measurement": "inhibition", "setting": "[38]", "result": 6.9, "unit": "%"}, {"measurement": "inhibition", "setting": "[39]", "result": -5.5, "unit": "%"}, {"measurement": "inhibition", "setting": "[40]", "result": 7.2, "unit": "%"}, {"measurement": "inhibition", "setting": "[41]", "result": 11.1, "unit": "%"}, {"measurement": "clearance", "setting": "[42]", "result": 0.3, "unit": "L/h/kg"}, {"measurement": "IC50", "setting": "[43]", "result": 0.23, "unit": "µM"}, {"measurement": "inhibition", "setting": "[44]", "result": -6.5, "unit": "%"}, {"measurement": "inhibition", "setting": "[45]", "result": 3, "unit": "%"}]}
